In patent publication US10800791B2, “Triazole ACC inhibitors and uses thereof” (Gilead Apollo, LLC, priority 2015, dated 2020):
pIC50: −log10 of the molar value. In brackets after ≈: the same amount, converted by molar mass. Where two headings read alike, the source gives them in different places.

Assays:
[1] = tested on: Diplodia maydis (Dm); test: Growth inhibition assay of fungal pathogens, Dm; type: cell-based; settings: Stenocarpella maydis, 48 h, growth inhibition at 48 hours vs 2% DMSO control
Procedure: (§1) Compounds of the present invention were evaluated in a growth inhibition assay to determine the ability to control the growth of fungal pathogens, such as Botrtyis cinerea (Bc), Collectotrichum graminicola (Cg), Diplodia maydis (Dm), Fusarium moniliforme (Fm), Fusarium virguliforme (Fv), Phytophthora capsici (Pc), Rhizoctonia solani (Rs), and Septoria tritici (St).
(§2) Compounds to be tested were dissolved in DMSO at 2.5 mg/ml to produce compound stock solutions (“stocks”). Stocks were diluted with DMSO by a five-fold dilution in a 96-well stock plate, and two sets of final concentrations of 50, 10, and 2 ppm or 2, 0.4, and 0.08 ppm were obtained in vitro. A set of positive controls was also prepared, with various concentrations of Soraphen (2, 0.4, and 0.08 ppm), Metalaxyl (1.1, 0.22, and 0.04 ppm), and Metconazole (2, 0.4, and 0.08 ppm or 0.2, 0.04, and 0.008 ppm) after the five-fold dilutions. Negative controls on each plate included 2% DMSO, water, and a blank (media+2% DMSO).
(§3) Fungal spores were isolated from previously sub-cultured plates of Botrtyis cinerea (Bc), Collectotrichum graminicola (Cg), Diplodia maydis (Dm), Fusarium moniliforme (Fm), Fusarium virguliforme (Fv), Phytophthora capsici (Pc), and Septoria tritici (St). The isolated spores were diluted to individual concentrations with a 17% V8 liquid media. For Rhizoctonia solani (Rs) and Pythium irregulare, 1.5 mm mycelial plugs were used in place of spores and/4 Potato Dextrose Broth (PDB) was used for dilution. The spore concentrations and plug sizes were based on growth curves generated at 48 hours for each pathogen.
(§4) In a second 96-well plate, the spores or mycelial plugs, media, diluted compound solutions, and controls were combined. Once the compound was added, a true final concentration of compound in each well was measured by an OD600 reading, which adjusted for any compound precipitation that might have occurred in the well. Plate readings were repeated at both 24 and 48 hours. The blank negative control was used as a background subtraction. Additional visual ratings were performed at both 24 and 48 hours for checking on precipitation and confirming efficacy. Visual and OD600 ratings of the compounds at 48 hours were compared to the 2% DMSO negative control, and the percent of pathogen growth inhibition was determined based on those values.

[2] = target: human (hACC2) (Homo sapiens, UniProt O00763); test: In vitro ACC inhibition assay (ADP-Glo), hACC2; type: biochemical; settings: 5 nM ACC2, 20 μM ATP, 20 μM acetyl-CoA
Procedure: The detailed procedure is as follows. […] 10 μL ADP glo reagent was added. […] 20 μL kinase detection reagent was added.

[3] = tested on: C. krusei; test: Antifungal Activity Assay (broth microtiter MIC), C. krusei; type: cell-based, Candida krusei; settings: Pichia kudriavzevii, ATCC6258, 48 h
Summary of the method: (§5)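 Endpoint: lowest concentration visibly inhibiting growth relative to control after 48 h. Inoculum of 2.5×10^3 CFU/mL final in RPMI 1640+MOPS, prepared from overnight 35° C agar cultures; test compounds diluted in water to 128 μg/mL before plating.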

[4] = tested on: Rhizoctonia solani (Rs); test: Growth inhibition assay of fungal pathogens, Rs; type: cell-based; settings: 48 h
[5] = tested on: Fusarium moniliforme (Fm); test: Growth inhibition assay of fungal pathogens, Fm; type: cell-based; settings: Fusarium verticillioides, 48 h, read-out: Concentration at 90% Inhibition Fm
Procedure: as §1, §2, §3, §4

[6] = tested on: Botrtyis cinerea (Bc); test: Growth inhibition assay of fungal pathogens, Bc; type: cell-based; settings: 48 h, growth inhibition at 48 hours vs 2% DMSO control
Procedure: as §1, §2, §3, §4

[7] = tested on: C. albicans; test: Antifungal Activity Assay (broth microtiter MIC), C. albicans; type: cell-based, Candida albicans; settings: Candida albicans, ATCC90028, 48 h
Summary of the method: as §5

[8] = tested on: Phytophthora capsici (Pc); test: Growth inhibition assay of fungal pathogens, Pc; type: cell-based; settings: 48 h
Procedure: as §1, §2, §3, §4

[9] = tested on: C. parapsilosis; test: Antifungal Activity Assay (broth microtiter MIC), C. parapsilosis; type: cell-based, Candida parapsilosis; settings: Lodderomyces parapsilosis, ATCC22019, 48 h
Summary of the method: as §5

[10] = tested on: Collectotrichum graminicola (Cg); test: Growth inhibition assay of fungal pathogens, Cg; type: cell-based; settings: 48 h, growth inhibition at 48 hours vs 2% DMSO control
Procedure: as §1, §2, §3, §4

[11] = tested on: Septoria tritici (St); test: Growth inhibition assay of fungal pathogens, St; type: cell-based; settings: Zymoseptoria tritici, 48 h, growth inhibition at 48 hours vs 2% DMSO control
Procedure: as §1, §2, §3, §4

[12] = tested on: Fusarium virguliforme (Fv); test: Growth inhibition assay of fungal pathogens, Fv; type: cell-based; settings: 48 h
Procedure: as §1, §2, §3, §4

[13] = target: fungal (fACC2) (UniProt Q00955); settings: read-out: fACC2 (in vitro ACC2 Inhibition Assay, IC50), ADP-Glo, 5 nM ACC2, 20 μM ATP, 20 μM acetyl-CoA
[14] = Diplodia maydis, read-out: Concentration at 90% Inhibition Dm
[15] = Table 3a, ATCC 6258, 3 replicates, MIC recorded at 48 h, read-out: MIC, C. krusei ATCC 6258
[16] = Table 3b (additional results), ATCC 6258, 3 replicates, MIC recorded at 48 h, read-out: MIC, C. krusei ATCC 6258
[17] = mycelial plugs, growth inhibition at 48 hours vs 2% DMSO control, read-out: Concentration at 90% Inhibition Rs
[18] = Fusarium moniliforme, growth inhibition at 48 hours vs 2% DMSO control
[19] = Botrtyis cinerea, read-out: Concentration at 90% Inhibition Bc
[20] = Table 3a, ATCC 90028, 3 replicates, MIC recorded at 48 h, read-out: MIC, C. albicans ATCC 90028
[21] = Table 3b (additional results), ATCC 90028, 3 replicates, MIC recorded at 48 h, read-out: MIC, C. albicans ATCC 90028
[22] = growth inhibition at 48 hours vs 2% DMSO control, read-out: Concentration at 90% Inhibition Pc
[23] = Table 3a, ATCC 22019, 3 replicates, MIC recorded at 48 h, read-out: MIC, C. parapsilosis ATCC 22019
[24] = Table 3b (additional results), ATCC 22019, 3 replicates, MIC recorded at 48 h, read-out: MIC, C. parapsilosis ATCC 22019
[25] = Collectotrichum graminicola, read-out: Concentration at 90% Inhibition Cg
[26] = Septoria tritici, read-out: Concentration at 90% Inhibition St
[27] = growth inhibition at 48 hours vs 2% DMSO control, read-out: Concentration at 90% Inhibition Fv

Sequence of human (hACC2) (O00763 whole entry): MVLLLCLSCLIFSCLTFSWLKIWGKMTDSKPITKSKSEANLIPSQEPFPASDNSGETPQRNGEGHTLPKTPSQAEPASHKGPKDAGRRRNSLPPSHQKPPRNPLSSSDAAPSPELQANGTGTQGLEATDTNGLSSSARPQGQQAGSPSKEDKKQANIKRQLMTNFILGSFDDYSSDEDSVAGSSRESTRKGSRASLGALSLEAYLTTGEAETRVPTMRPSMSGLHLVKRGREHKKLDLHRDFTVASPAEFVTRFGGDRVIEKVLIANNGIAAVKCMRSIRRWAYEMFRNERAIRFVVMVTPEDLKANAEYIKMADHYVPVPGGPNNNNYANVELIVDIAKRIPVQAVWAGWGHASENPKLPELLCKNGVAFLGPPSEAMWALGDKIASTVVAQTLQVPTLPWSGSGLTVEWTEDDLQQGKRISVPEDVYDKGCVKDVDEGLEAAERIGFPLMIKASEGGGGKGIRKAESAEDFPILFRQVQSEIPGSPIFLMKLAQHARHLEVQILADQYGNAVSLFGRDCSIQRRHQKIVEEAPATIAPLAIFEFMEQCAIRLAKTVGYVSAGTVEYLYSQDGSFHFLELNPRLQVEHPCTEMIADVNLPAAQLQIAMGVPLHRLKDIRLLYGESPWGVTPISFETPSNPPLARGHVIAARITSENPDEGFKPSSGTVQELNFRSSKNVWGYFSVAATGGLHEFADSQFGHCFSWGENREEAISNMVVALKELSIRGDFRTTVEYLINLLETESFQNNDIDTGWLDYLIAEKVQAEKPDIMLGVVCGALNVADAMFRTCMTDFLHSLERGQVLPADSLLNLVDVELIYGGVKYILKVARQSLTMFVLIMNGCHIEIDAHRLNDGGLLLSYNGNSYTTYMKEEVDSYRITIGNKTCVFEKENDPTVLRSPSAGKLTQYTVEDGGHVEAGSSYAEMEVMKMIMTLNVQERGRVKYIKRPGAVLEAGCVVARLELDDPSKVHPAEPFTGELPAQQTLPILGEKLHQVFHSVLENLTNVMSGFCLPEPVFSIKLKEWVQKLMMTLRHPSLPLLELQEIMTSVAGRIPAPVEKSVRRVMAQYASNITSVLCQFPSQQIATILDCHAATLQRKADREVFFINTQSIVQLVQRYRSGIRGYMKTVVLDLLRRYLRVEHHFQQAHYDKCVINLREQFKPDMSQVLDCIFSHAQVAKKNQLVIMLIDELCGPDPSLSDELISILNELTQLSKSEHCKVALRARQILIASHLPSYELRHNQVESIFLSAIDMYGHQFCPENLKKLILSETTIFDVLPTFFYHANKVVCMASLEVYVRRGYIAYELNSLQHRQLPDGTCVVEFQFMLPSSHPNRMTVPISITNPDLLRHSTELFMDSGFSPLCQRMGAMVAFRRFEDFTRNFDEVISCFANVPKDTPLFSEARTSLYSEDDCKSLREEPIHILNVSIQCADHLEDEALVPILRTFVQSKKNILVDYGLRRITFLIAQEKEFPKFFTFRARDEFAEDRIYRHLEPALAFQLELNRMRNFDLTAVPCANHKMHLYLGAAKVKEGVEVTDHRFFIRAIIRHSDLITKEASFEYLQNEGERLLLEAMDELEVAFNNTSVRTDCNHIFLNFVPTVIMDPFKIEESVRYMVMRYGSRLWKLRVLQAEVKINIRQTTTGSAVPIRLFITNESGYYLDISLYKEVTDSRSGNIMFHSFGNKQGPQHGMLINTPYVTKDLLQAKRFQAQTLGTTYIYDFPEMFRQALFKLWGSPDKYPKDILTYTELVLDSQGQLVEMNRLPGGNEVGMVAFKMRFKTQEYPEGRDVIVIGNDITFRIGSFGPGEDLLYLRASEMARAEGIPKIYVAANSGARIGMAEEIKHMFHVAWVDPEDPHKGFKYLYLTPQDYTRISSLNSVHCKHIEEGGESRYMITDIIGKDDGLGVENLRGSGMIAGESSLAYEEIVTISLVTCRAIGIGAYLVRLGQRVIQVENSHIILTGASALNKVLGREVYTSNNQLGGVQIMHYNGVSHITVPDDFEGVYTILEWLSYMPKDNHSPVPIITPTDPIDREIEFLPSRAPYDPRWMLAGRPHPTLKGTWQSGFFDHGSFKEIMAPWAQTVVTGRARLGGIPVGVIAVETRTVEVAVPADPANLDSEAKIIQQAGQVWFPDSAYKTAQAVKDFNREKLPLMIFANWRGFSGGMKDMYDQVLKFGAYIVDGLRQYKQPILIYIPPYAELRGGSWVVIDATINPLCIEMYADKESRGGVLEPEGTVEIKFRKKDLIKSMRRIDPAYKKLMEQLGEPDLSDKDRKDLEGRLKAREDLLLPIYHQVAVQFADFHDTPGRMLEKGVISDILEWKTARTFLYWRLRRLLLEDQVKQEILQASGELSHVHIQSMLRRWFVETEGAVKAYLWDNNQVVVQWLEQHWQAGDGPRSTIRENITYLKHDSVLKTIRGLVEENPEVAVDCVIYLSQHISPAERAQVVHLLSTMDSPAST
Sequence of fungal (fACC2) (Q00955 whole entry): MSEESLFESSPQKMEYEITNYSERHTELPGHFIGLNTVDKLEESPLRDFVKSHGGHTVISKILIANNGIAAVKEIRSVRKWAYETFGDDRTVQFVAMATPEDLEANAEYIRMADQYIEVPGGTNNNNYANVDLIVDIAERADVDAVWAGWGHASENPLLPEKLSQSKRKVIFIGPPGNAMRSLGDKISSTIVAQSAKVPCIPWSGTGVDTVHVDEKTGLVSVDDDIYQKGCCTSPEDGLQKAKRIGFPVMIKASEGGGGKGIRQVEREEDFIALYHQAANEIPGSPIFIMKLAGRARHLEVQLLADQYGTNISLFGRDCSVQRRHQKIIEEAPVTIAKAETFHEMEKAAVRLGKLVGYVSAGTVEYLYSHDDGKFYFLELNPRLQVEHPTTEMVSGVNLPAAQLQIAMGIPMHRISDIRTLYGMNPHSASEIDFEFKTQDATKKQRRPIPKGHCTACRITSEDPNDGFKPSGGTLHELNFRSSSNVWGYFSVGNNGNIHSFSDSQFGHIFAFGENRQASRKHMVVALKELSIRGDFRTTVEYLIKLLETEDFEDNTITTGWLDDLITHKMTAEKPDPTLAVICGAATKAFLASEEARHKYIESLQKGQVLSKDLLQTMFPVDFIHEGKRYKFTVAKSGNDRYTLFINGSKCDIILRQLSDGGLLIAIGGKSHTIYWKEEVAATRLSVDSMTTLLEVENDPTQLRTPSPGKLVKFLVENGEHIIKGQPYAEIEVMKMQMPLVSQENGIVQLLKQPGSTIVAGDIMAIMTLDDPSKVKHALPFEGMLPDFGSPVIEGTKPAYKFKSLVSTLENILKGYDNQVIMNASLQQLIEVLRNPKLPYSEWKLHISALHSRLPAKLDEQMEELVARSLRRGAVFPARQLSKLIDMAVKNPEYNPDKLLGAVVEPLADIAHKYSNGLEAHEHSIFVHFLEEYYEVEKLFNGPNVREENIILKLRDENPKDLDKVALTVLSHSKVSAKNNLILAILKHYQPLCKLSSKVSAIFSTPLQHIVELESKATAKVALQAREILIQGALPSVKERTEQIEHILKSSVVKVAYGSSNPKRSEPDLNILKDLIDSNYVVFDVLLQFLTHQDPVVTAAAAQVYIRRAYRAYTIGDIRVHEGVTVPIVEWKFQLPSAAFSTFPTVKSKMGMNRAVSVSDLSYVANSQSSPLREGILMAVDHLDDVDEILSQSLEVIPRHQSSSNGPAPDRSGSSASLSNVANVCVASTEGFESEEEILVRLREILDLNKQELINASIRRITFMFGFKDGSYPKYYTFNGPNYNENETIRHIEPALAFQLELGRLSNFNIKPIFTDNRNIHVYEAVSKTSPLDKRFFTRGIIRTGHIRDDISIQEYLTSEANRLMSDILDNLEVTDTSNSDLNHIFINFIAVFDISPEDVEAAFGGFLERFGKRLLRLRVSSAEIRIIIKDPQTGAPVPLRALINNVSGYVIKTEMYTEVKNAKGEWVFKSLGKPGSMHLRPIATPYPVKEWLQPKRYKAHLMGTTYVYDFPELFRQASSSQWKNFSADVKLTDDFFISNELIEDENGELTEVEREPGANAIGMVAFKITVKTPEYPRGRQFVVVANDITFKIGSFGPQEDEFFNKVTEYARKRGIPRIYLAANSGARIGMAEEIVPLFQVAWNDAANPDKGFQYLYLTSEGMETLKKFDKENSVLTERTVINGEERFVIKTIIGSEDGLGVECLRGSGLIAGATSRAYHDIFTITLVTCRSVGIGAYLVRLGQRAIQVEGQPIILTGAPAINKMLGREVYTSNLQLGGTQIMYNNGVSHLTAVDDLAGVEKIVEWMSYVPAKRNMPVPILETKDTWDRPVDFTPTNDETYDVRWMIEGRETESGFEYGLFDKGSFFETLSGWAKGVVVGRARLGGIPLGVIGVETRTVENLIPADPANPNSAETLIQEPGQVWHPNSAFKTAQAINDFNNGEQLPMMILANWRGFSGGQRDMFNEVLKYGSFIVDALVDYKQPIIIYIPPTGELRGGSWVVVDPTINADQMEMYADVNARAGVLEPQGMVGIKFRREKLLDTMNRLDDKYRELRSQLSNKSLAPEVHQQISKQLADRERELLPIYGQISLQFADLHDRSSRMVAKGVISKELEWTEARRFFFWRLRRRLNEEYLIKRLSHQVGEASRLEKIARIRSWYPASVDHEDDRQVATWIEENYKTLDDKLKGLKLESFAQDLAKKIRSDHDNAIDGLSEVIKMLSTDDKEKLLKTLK

SMILES	pIC50 ([2]; Table 2a)	pIC50 ([2]; Table 2b, additional results)	pIC50 ([13]; Table 2a)	pIC50 ([13]; Table 2b, additional results)	IC90 [1, 14]	MIC [3, 15]	MIC [3, 16]	IC90 [4, 17]	IC90 [5, 18]	IC90 [6, 19]	MIC [7, 20]	MIC [7, 21]	IC90 [8, 22]	MIC [9, 23]	MIC [9, 24]	IC90 [10, 25]	IC90 [11, 26]	IC90 [12, 27]	other results
COc1ccc(F)cc1[C@H](Cn1c(=O)n([C@H](C)C(=O)NC(C)C)c(=O)c2c(C)c(-n3nccn3)sc21)OCCC#N [Compound I-138]	8.30 to 9.00	8.30 to 9.00	8.30 to 9.00	9.00 to 9.52	–	–	–	–	–	–	–	–	–	–	–	–	–	–	IC90 ([1]; read-out: Concentration at 90% Inhibition Dm, Diplodia maydis): 0.08 mg/L (≈ 0.137 µM); MIC ([3]; read-out: MIC, C. krusei ATCC 6258, Table 3a, 3 replicates, MIC recorded at 48 h): 0.25 to 1 mg/L (≈ 0.428 to 1.71 µM); MIC ([3]; read-out: MIC, C. krusei ATCC 6258, Table 3b (additional results), 3 replicates, MIC recorded at 48 h): 2.01 to 4 mg/L (≈ 3.44 to 6.85 µM); IC90 ([4]; read-out: Concentration at 90% Inhibition Rs, Rhizoctonia solani, mycelial plugs, growth inhibition at 48 hours vs 2% DMSO control): 0.08 mg/L (≈ 0.137 µM); IC90 [5]: 0.08 mg/L (≈ 0.137 µM); IC90 ([6]; read-out: Concentration at 90% Inhibition Bc, Botrtyis cinerea): 0.4 mg/L (≈ 0.685 µM); MIC ([7]; read-out: MIC, C. albicans ATCC 90028, Table 3a, 3 replicates, MIC recorded at 48 h): 0.25 to 1 mg/L (≈ 0.428 to 1.71 µM); MIC ([7]; read-out: MIC, C. albicans ATCC 90028, Table 3b (additional results), 3 replicates, MIC recorded at 48 h): > 4.01 mg/L; IC90 ([8]; read-out: Concentration at 90% Inhibition Pc, Phytophthora capsici, growth inhibition at 48 hours vs 2% DMSO control): 2 mg/L (≈ 3.43 µM); MIC ([9]; read-out: MIC, C. parapsilosis ATCC 22019, Table 3a, 3 replicates, MIC recorded at 48 h): 0.25 to 1 mg/L (≈ 0.428 to 1.71 µM); MIC ([9]; read-out: MIC, C. parapsilosis ATCC 22019, Table 3b (additional results), 3 replicates, MIC recorded at 48 h): 1.01 to 2 mg/L (≈ 1.73 to 3.43 µM); IC90 ([10]; read-out: Concentration at 90% Inhibition Cg, Collectotrichum graminicola): 0.08 mg/L (≈ 0.137 µM); IC90 ([11]; read-out: Concentration at 90% Inhibition St, Septoria tritici): 2 mg/L (≈ 3.43 µM); IC90 ([12]; read-out: Concentration at 90% Inhibition Fv, Fusarium virguliforme, growth inhibition at 48 hours vs 2% DMSO control): 0.4 mg/L (≈ 0.685 µM)
COc1ccc(F)cc1[C@H](Cn1c(=O)n([C@H](C)C(=O)N(C)C(C)C)c(=O)c2c(C)c(-n3nccn3)sc21)OCCC#N [Compound I-139]	8.00 to 8.30	8.30 to 9.00	8.00 to 8.30	8.30 to 9.00	0.08 mg/L (≈ 0.134 µM)	0.25 to 1 mg/L (≈ 0.418 to 1.67 µM)	2.01 to 4 mg/L (≈ 3.36 to 6.69 µM)	0.08 mg/L (≈ 0.134 µM)	0.4 mg/L (≈ 0.669 µM)	0.4 mg/L (≈ 0.669 µM)	0.25 to 1 mg/L (≈ 0.418 to 1.67 µM)	2.01 to 4 mg/L (≈ 3.36 to 6.69 µM)	> 50 mg/L	1.1 to 2 mg/L (≈ 1.84 to 3.35 µM)	2.01 to 4 mg/L (≈ 3.36 to 6.69 µM)	0.4 mg/L (≈ 0.669 µM)	> 50 mg/L	0.4 mg/L (≈ 0.669 µM)	–
CCNC(=O)C(C)(C)n1c(=O)c2c(C)c(-n3nccn3)sc2n(C[C@H](OCCC#N)c2cc(F)ccc2OC)c1=O [Compound I-140]	8.00 to 8.30	8.00 to 8.30	8.30 to 9.00	8.30 to 9.00	0.4 mg/L (≈ 0.685 µM)	0.25 to 1 mg/L (≈ 0.428 to 1.71 µM)	2.01 to 4 mg/L (≈ 3.44 to 6.85 µM)	0.08 mg/L (≈ 0.137 µM)	0.08 mg/L (≈ 0.137 µM)	0.4 mg/L (≈ 0.685 µM)	1.1 to 2 mg/L (≈ 1.88 to 3.43 µM)	2.01 to 4 mg/L (≈ 3.44 to 6.85 µM)	> 50 mg/L	2.1 to 4 mg/L (≈ 3.6 to 6.85 µM)	1.01 to 2 mg/L (≈ 1.73 to 3.43 µM)	0.4 mg/L (≈ 0.685 µM)	> 50 mg/L	0.4 mg/L (≈ 0.685 µM)	–
